Experimental data reported in patent publication US10800792B2, “Inhibitors of Bruton's tyrosine kinase and method of their use” (JANSSEN PHARMACEUTICA NV, priority 2015, dated 2020).

biological target: unphosphorylated-BTK kinase domain (UP-BTK), GST-tagged human BTK (389-659aa) (Homo sapiens (Human), UniProt Q06187); assay: BTK kinase Lanthascreen binding assay; settings: Lanthascreen tracer competition, 60 minutes incubation; pIC50 = negative log of the IC50 in molar
Procedure, shortened: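 Measures how well compounds compete with a fluorescence-labelled tracer for binding to BTK in its unphosphorylated state. IC50 values were fitted and expressed as pIC50 (negative logarithm of the molar IC50).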

unphosphorylated-BTK kinase domain (UP-BTK), GST-tagged human BTK (389-659aa), sequence (Q06187 389-659): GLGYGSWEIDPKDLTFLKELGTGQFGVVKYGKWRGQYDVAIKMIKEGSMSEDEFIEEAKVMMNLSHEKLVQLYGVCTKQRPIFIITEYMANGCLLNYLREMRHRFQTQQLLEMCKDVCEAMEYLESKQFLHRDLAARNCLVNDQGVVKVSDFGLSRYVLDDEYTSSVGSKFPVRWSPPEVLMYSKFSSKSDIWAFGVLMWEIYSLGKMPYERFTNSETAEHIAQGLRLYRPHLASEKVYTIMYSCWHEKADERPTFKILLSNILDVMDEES

| SMILES | BTK_I_binding pIC50 |
| --- | --- |
| C=CC(=O)N1CC[C@@H](NC(=O)c2sc3nccc4c3c2NC(=O)N4c2ccc(Oc3ccccc3)nc2C)C1 (single isomer, unassigned) [Example 666, (R)—N-(1-Acryloylpyrrolidin-3-yl)-5-(*R)-(2-methyl-6-phenoxypyridin-3-yl)-4-oxo-4,5-dihydro-3H-1-thia-3,5,8-triazaacenaphthylene-2-carboxamide] | 6.3 |
| O=C(N[C@@H]1CCCNC1)c1sc2nccc3c2c1NC(=O)N3c1cccc(-c2cccc(F)c2F)c1 [Example 706, (R)-5-(2′,3′-Difluoro-[1,1′-biphenyl]-3-yl)-4-oxo-N-(piperidin-3-yl)-4,5-dihydro-3H-1-thia-3,5,8-triazaacenaphthylene-2-carboxamide] | 7.7 |
| Cc1cc(Oc2cccc(COc3ccccc3C#N)c2)ccc1N1C(=O)Nc2c(C(=O)NC3CCN(C)CC3)sc3nccc1c23 [Example 855, 5-(4-(3-((2-Cyanophenoxy)methyl)phenoxy)-2-methylphenyl)-N-(1-methylpiperidin-4-yl)-4-oxo-4,5-dihydro-3H-1-thia-3,5,8-triazaacenaphthylene-2-carboxamide] | 7.5 |
| C=CC(=O)N1CCC[C@@H](NC(=O)c2sc3nccc4c3c2NC(=O)N4c2ccc(Oc3cccnn3)cc2C)C1 [Example 784, (R)—N-(1-Acryloylpiperidin-3-yl)-5-(2-methyl-4-(pyridazin-3-yloxy)phenyl)-4-oxo-4,5-dihydro-3H-1-thia-3,5,8-triazaacenaphthylene-2-carboxamide] | 7.4 |
| Cc1cc(OC(C)C)ncc1N1C(=O)Nc2c(C(=O)N[C@@H]3CCCNC3)sc3nccc1c23 (single isomer, unassigned) [Example 806, (R)-5-(*R)-(6-Isopropoxy-4-methylpyridin-3-yl)-4-oxo-N-(piperidin-3-yl)-4,5-dihydro-3H-1-thia-3,5,8-triazaacenaphthylene-2-carboxamide] | <6 |
| C=CC(=O)N1CCC[C@@H](NC(=O)c2sc3nccc4c3c2NC(=O)N4c2ccc(S(=O)(=O)C(C)(C)C)cc2)C1 [Example 641, (R)—N-(1-Acryloylpiperidin-3-yl)-5-(4-(tert-butylsulfonyl)phenyl)-4-oxo-4,5-dihydro-3H-1-thia-3,5,8-triazaacenaphthylene-2-carboxamide] | 5.6 |
| CC(=O)N1CCC[C@@H](NC(=O)c2sc3nccc4c3c2NC(=O)N4c2ccc(Oc3ccccn3)cc2C)C1 [Example 800, (R)—N-(1-Acetylpiperidin-3-yl)-5-(2-methyl-4-(pyridin-2-yloxy)phenyl)-4-oxo-4,5-dihydro-3H-1-thia-3,5,8-triazaacenaphthylene-2-carboxamide] | 6.2 |
| Cc1cnc(-c2ccccc2)cc1N1C(=O)Nc2c(C(=O)N[C@@H]3CCCNC3)sc3nccc1c23 [Example 729, (R)-5-(5-Methyl-2-phenylpyridin-4-yl)-4-oxo-N-(piperidin-3-yl)-4,5-dihydro-3H-1-thia-3,5,8-triazaacenaphthylene-2-carboxamide] | <6 |

same assay, conditions: pIC50 = negative log of the IC50 in molar; 60 minutes incubation, 50 nM Tracer 236

| SMILES | BTK_I_binding pIC50 |
| --- | --- |
| CO[C@@H]1C[C@@H](NC(=O)c2sc3nccc4c3c2NC(=O)N4c2ccc(Oc3ccccc3)cc2)CN(C)C1 [Example 259, N-((3R,5R)-5-Methoxy-1-methylpiperidin-3-yl)-4-oxo-5-(4-phenoxyphenyl)-4,5-dihydro-3H-1-thia-3,5,8-triazaacenaphthylene-2-carboxamide] | 6.5 |

same assay, conditions: pIC50 = negative log of the IC50 in molar; 60 minutes incubation, 50 nM Tracer 236; read-out: BTK_I_binding pIC50 (converted)

| SMILES | IC50 |
| --- | --- |
| C=CC(=O)N1CCC[C@@H](NC(=O)c2sc3nccc4c3c2NC(=O)N4c2ccc(Oc3ccccc3CC)cc2C)C1 [Example 19, (R)—N-(1-Acryloylpiperidin-3-yl)-5-(4-(2-ethylphenoxy)-2-methylphenyl)-4-oxo-4,5-dihydro-3H-1-thia-3,5,8-triazaacenaphthylene-2-carboxamide] | 63.1 nM |
| Cc1cc(Oc2ccccc2)ccc1N1C(=O)Nc2c(C(=O)NC3CN(C(=O)CCS(C)(=O)=O)C3)sc3nccc1c23 [Example 240] | 200 nM |

same assay, conditions: unphosphorylated-BTK kinase domain, 50 nM Tracer 236, 60 minutes; pIC50 = negative log of the IC50 in molar

| SMILES | BTK_I_binding pIC50 |
| --- | --- |
| C=CC(=O)N1C[C@@H](O)[C@@H](NC(=O)c2sc3nccc4c3c2NC(=O)N4c2ccc(Oc3ccccc3)cc2C)C1 (relative stereo) [Example 489, N-((3S,4R)-1-Acryloyl-4-hydroxypyrrolidin-3-yl)-5-(*S)-(2-methyl-4-phenoxyphenyl)-4-oxo-4,5-dihydro-3H-1-thia-3,5,8-triazaacenaphthylene-2-carboxamide] | 7.6 |
| C=CS(=O)(=O)N1CCC[C@@H](NC(=O)c2sc3nccc4c3c2NC(=O)N4c2ccc(Oc3ccccc3)cc2C)C1 (single isomer, unassigned) [Example 530, (R)-5-(*S)-(2-Methyl-4-phenoxyphenyl)-4-oxo-N-(1-(vinylsulfonyl)piperidin-3-yl)-4,5-dihydro-3H-1-thia-3,5,8-triazaacenaphthylene-2-carboxamide] | 8.0 |
| CCC(=O)N1CC[C@@H](NC(=O)c2sc3nccc4c3c2NC(=O)N4c2ccc(Oc3ccccc3)cc2C)C1 (single isomer, unassigned) [Example 325, (R)-5-(*R)-(2-Methyl-4-phenoxyphenyl)-4-oxo-N-(1-propionylpyrrolidin-3-yl)-4,5-dihydro-3H-1-thia-3,5,8-triazaacenaphthylene-2-carboxamide] | 5.7 |
| Cc1cc(Oc2ccccc2)ccc1N1C(=O)Nc2c(C(=O)N[C@@H]3CCN(C(=O)CCl)C3)sc3nccc1c23 [Example 395, (R)—N-(1-(2-Chloroacetyl)pyrrolidin-3-yl)-5-(2-methyl-4-phenoxyphenyl)-4-oxo-4,5-dihydro-3H-1-thia-3,5,8-triazaacenaphthylene-2-carboxamide] | 8.0 |
| Cc1ccccc1N1C(=O)Nc2c(C(=O)N[C@@H]3CCCN(C)C3)sc3nccc1c23 [Example 352, (R)—N-(1-Methylpiperidin-3-yl)-4-oxo-5-(o-tolyl)-4,5-dihydro-3H-1-thia-3,5,8-triazaacenaphthylene-2-carboxamide] | <5 |
| COc1ccc(N2C(=O)Nc3c(C(=O)N[C@@H]4CCCN(C)C4)sc4nccc2c34)c(C)c1 [Example 340, (R)-5-(4-Methoxy-2-methylphenyl)-N-(1-methylpiperidin-3-yl)-4-oxo-4,5-dihydro-3H-1-thia-3,5,8-triazaacenaphthylene-2-carboxamide] | 5.3 |

same assay, conditions: unphosphorylated-BTK kinase domain, 50 nM Tracer 236, 60 minutes; pIC50 = negative log of the IC50 in molar; read-out: BTK_I_binding pIC50 (converted)

| SMILES | IC50 |
| --- | --- |
| [2H]c1c([2H])c([2H])c(Oc2ccc(N3C(=O)Nc4c(C(=O)N[C@@H]5CCCN(C([2H])([2H])[2H])C5)sc5nccc3c45)c(C)c2)c([2H])c1[2H] [Example 380, (R)-5-(2-Methyl-4-(2,3,4,5,6-pentadeuteriophenoxy)phenyl)-N-(1-(trideuteriomethyl)piperidin-3-yl)-4-oxo-4,5-dihydro-3H-1-thia-3,5,8-triazaacenaphthylene-2-carboxamide] | 158 nM |

same assay, conditions: unphosphorylated-BTK kinase domain, 60 minutes incubation, 50 nM Tracer 236; pIC50 = negative log of the IC50 in molar

| SMILES | BTK_I_binding pIC50 |
| --- | --- |
| CNCC(=O)N1CCC[C@@H](NC(=O)c2sc3nccc4c3c2NC(=O)N4c2ccc(OC(C)C)cc2C)C1 [Example 923, (R)-5-(4-Isopropoxy-2-methylphenyl)-N-(1-(2-(methylamino)acetyl)piperidin-3-yl)-4-oxo-4,5-dihydro-3H-1-thia-3,5,8-triazaacenaphthylene-2-carboxamide] | 6.3 |
| O=C(NC1CCNCC1)c1sc2nccc3c2c1NC(=O)N3c1ccc(Oc2ccccc2)cc1 [Example 926, 4-oxo-5-(4-phenoxyphenyl)-N-(piperidin-4-yl)-4,5-dihydro-3H-1-thia-3,5,8-triazaacenaphthylene-2-carboxamide] | 6.2 |
